This is an account of results in patent US7834042B2, “Angiotensin II receptor antagonists” (Merck Sharp & Dohme Corp., priority 2006, dated 2010).

The nature of the experiment: Reactive nitrogen species (RNS) after oral dosing of fasted rats, diaminonapthalene derivitization (DAN) assay. The format is in vivo, Sprague-Dawley (SD) rats. The note with it: fasted SD rats, 40 mpk PO. Here is the method: The dinitrate compounds of the invention provide enhanced NO release over mononitrate analogs. While mononitrate compounds orally dosed to rats result in reactive nitrite species circulating in plasma with maximal concentration in the 0.5-2.8 μM range, similar dosing of compounds of the present invention result in an unexpectedly large increase in circulating nitrite concentrations. A consideration of stoichiometry leads to an expectation of a doubling of nitrite levels. Compounds of the invention, however, provide a nitrite level increase more than two fold.
Biochemical evidence for the generation of NO in vivo in response to test compound administration was obtained from studies in Sprague-Dawley (SD) rats. Administration of test compound to fasted SD rats (40 mpk, PO) results in the appearance of reactive nitrogen species (RNS), assessed using the diaminonapthalene derivitization (DAN) assay. Compounds 1-2 as numbered and identified in Table 1 below were tested.

Turning to `CCCCc1nc(Cl)c(COC(=O)CCC[C@@H](CO[N+](=O)[O-])O[N+](=O)[O-])n1Cc1ccc(-c2ccccc2-c2nnn[nH]2)cc1` [Compound 2], the “RNS levels (result in words)” value (Compounds 1-2 compared) is “improved RNS levels”. For the same molecule, the RNS levels turned out to be 0.6 ± 0.11 (Time 0 h); 9.8 ± 3.8 (Time 1 h); 3.1 ± 2.48 (Time 3 h); 2.1 ± 1.65 (Time 6 h); 0.5 ± 0.26 (Time 24 h, in µM).

Consider `CCCCc1nc(Cl)c(COC(=O)CCCO[N+](=O)[O-])n1Cc1ccc(-c2ccccc2-c2nnn[nH]2)cc1` [Compound 1, reference compound], for which the RNS levels is listed as 0.7 ± 0.12 (Time 0 h, in µM); 1.1 ± 0.22 (Time 1 h, in µM); 1.1 ± 0.26 (Time 3 h, in µM); 1.1 ± 0.34 (Time 6 h, in µM); 1.7 ± 0.15 (Time 24 h, in µM).
